# System: endogenous Nanog
# Assay: RT-PCR of endogenous Nanog mRNA in treated MEFs
# Format: cell-based, mouse
# Conditions: versus vehicle
# Procedure: MEFs were treated with vehicle control or OAC 1 to test whether OAC 1 activates endogenous Oct4 and Nanog gene transcription. […] Oct4, Sox2, and Nanog are central to the transcriptional regulatory hierarchy for ESC pluripotency, forming the core transcriptional regulatory circuitry in ESCs (37). […] OAC1 activated Sox2 mRNA expression, along with Oct4 and Nanog (FIG. 61).
# RT-PCR analysis: Total RNA was purified with Trizol reagent (Invitrogen). Reverse transcription was performed with 1 μg of RNA using Omniscript® Reverse Transcription Kit (Qiagen). Quantitative PCR was performed using iTaq SYBR Green Supermix with Rox (Bio-rad) in Applied Biosystem Step one plus real-time PCR system. […]
compound,measurement,value
"O=C(Nc1cc2cc[nH]c2cn1)c1ccccc1 [OAC1, N-(1H-6-azaindol-5-yl)benzamide]",endogenous Nanog mRNA expression,activated
